Assay results: US6974839B2, “Method of delaying ejaculation” (DMI BioSciences, Inc., priority 2001, dated 2005)
Structures can show the parent of a compound that is named as a salt.

Tests used:
normal subject = assay: Delay of ejaculation after an oral dose taken 30–60 minutes prior to sexual intercourse; type: in vivo, human
From the text: […]. […] […]

μ-opioid receptors = settings: cited from earlier work
animal models = settings: cited from earlier work

SMILES	delay of ejaculation (normal subject; 25 mg orally, 30–60 minutes prior to sexual intercourse, normal subject) [min]	ejaculation/orgasm achieved (normal subject; 100 mg)	side effects associated with the dose (normal subject; doses of 50–100 mg)	affinity of binding to μ-opioid receptors (μ-opioid receptors)	potency in μ-opioid binding relative to tramadol (μ-opioid receptors) [times]	potency in producing analgesia relative to tramadol (animal models)
COc1cccc([C@]2(O)CCCC[C@H]2CN(C)C)c1 (racemic) [tramadol hydrochloride, (±)cis-2-[(dimethylamino)methyl]-1-(3-methoxyphenyl)-cyclohexanol hydrochloride]	10 to 15	sometimes ejaculation/orgasm was not achieved	drowsiness, lightheadedness, dry mouth and a sense of slight euphoria (opioid effect)			
CN(C)C[C@H]1CCCC[C@]1(O)c1cccc(O)c1 [M1]				higher affinity binding	200	up to 6 times
COc1cccc(C2(O)CCCCC2CN(C)C)c1 (stereo not shown) [tramadol, 2-[(dimethylamino)methyl]-1-(3-methoxyphenyl)-cyclohexanol]				low affinity binding		
